Data taken from patent US9700550B1, “Decreasing expression level of apoptosis-related genes by treating a human subject with a nitroxide” (priority 2016, dated 2017).

Columns and labels:
Assay type in all cases: in vivo
Bak1 = test: Gene expression in cardiac tissue of Tempol-fed mice, chip-based microarray
Protocol: (§1) To assess the effects of Tempol on gene expression, Tempol was administered to experimental mice at a dose of 5 mg/g of food from 14 months to 31 months after birth. Mice receiving the same food without the addition of Tempol were used as a negative control. At the age of 31 months, the experimental animals were sacrificed and the hearts were surgically removed. The expression of a broad spectrum of genes in the cardiac tissue was assessed using chip-based microarray technology. Such chips are well known in the art and are widely used to assess gene expression.

Casp12 = test: as above
Protocol: as §1

Casp2 = test: as above
Protocol: as §1

Casp3 = test: as above
Protocol: as §1

Pdcd5 = test: as above
Protocol: as §1

Tradd = test: as above
Protocol: as §1

[1] = system: Trp53inp1 (mouse gene of Tp53inp1); test: as above
Protocol: as §1

[2] = system: Bak1, Pdcd5, Casp2, Tradd, Trp53inp1 (mouse gene of Tp53inp1), Casp3, or Casp12; test: Serum level of apoptosis pathway genes in a human subject after Tempol treatment; conditions: 1500 mg Tempol per day for 180 days
Protocol: (§2) A 70-kilogram human subject is identified for increased expression level of Bak1, Pdcd5, Casp2, Tradd, Trp53inp1 (mouse gene of Tp53inp1), Casp3, or Casp12. The human subject is administered a dose of 1500 mg of Tempol per day for 180 days. This may be administered in a single dose, or may be administered as a number of smaller doses over a 24-hour period: for example, three 500-mg doses at eight-hour intervals. Following treatment, the serum level of Bak1, Pdcd5, Casp2, Tradd, Trp53inp1 (mouse gene of Tp53inp1), Casp3, or Casp12, is reduced.
as §2, with “decreased immune response to a bacterial infection.” for “increased expression level of Bak1, Pdcd5, Casp2, Tradd, Trp53inp1 (mouse gene of Tp53inp1), Casp3, or Casp12.”
as §2, with “identified as at risk” for “identified”, “a psychiatric condition.” for “increased expression level of Bak1, Pdcd5, Casp2, Tradd, Trp53inp1 (mouse gene of Tp53inp1), Casp3, or Casp12.”
as §2, with “identified as risk” for “identified”, “stress-induced apoptosis.” for “increased expression level of Bak1, Pdcd5, Casp2, Tradd, Trp53inp1 (mouse gene of Tp53inp1), Casp3, or Casp12.”
(§3) A 70-kilogram human subject is identified as at risk for a disease associated with an increased level of apoptosis. The human subject is administered a dose of 1500 mg of Tempol per day for 180 days. This may be administered in a single dose, or may be administered as a number of smaller doses over a 24-hour period: for example, three 500-mg doses at eight-hour intervals. Following treatment, the serum level of Bak1, Pdcd5, Casp2, Tradd, Trp53inp1 (mouse gene of Tp53inp1), Casp3, or Casp12, is reduced.
as §2, with “identified as at risk of a disease having an” for “identified for”
as §3, with “of Parkinson's” for “for a”, “[…].” for “associated with an increased level of apoptosis.”

[3] = Tempol 5 mg/g of food vs control mice
[4] = Tempol-treated vs control mice, P-value 0.01
[5] = Tempol-treated vs control mice, P-value 0.03
[6] = Tempol-treated vs control mice, P-value 0.00

## CC1(C)CC(O)CC(C)(C)N1[O] [Tempol, 4-hydroxy-2,2,6,6-tetramethylpiperidine-1-oxyl]
Bak1; [3]
  Bak1 expression change, in words: statistically significant decrease in expression
Bak1; [4]
  Bak1 fold change: −1.15
Bak1; age 31 months, Tempol 5 mg/g of food from 14 to 31 months, control mice 260
  Bak1 expression, Tempol-treated mice: 226
Casp12; [3]
  Casp12 expression change, in words: statistically significant decrease in expression
Casp12; Tempol-treated vs control mice, P-value 0.02
  Casp12 fold change: −1.61
Casp12; age 31 months, Tempol 5 mg/g of food from 14 to 31 months, control mice 701
  Casp12 expression, Tempol-treated mice: 436
Casp2; [3]
  Casp2 expression change, in words: statistically significant decrease in expression
Casp2; [5]
  Casp2 fold change: −1.20
Casp2; age 31 months, Tempol 5 mg/g of food from 14 to 31 months, control mice 316
  Casp2 expression, Tempol-treated mice: 261
Casp3; [3]
  Casp3 expression change, in words: statistically significant decrease in expression
Casp3; [6]
  Casp3 fold change: −1.47
Casp3; age 31 months, Tempol 5 mg/g of food from 14 to 31 months, control mice 604
  Casp3 expression, Tempol-treated mice: 414
Pdcd5; [3]
  Pdcd5 expression change, in words: statistically significant decrease in expression
Pdcd5; [5]
  Pdcd5 fold change: −1.15
Pdcd5; age 31 months, Tempol 5 mg/g of food from 14 to 31 months, control mice 2863
  Pdcd5 expression, Tempol-treated mice: 2503
Tradd; [3]
  Tradd expression change, in words: statistically significant decrease in expression
Tradd; [4]
  Tradd fold change: −1.23
Tradd; age 31 months, Tempol 5 mg/g of food from 14 to 31 months, control mice 288
  Tradd expression, Tempol-treated mice: 233
[1]; [3]
  Trp53inp1 expression change, in words: statistically significant decrease in expression
[1]; [6]
  Trp53inp1 fold change: −1.33
[1]; age 31 months, Tempol 5 mg/g of food from 14 to 31 months, control mice 1107
  Trp53inp1 expression, Tempol-treated mice: 830
[2]; Example 2: 70-kilogram human subject with increased expression level of the gene
  serum level of Bak1, Pdcd5, Casp2, Tradd, Trp53inp1, Casp3, or Casp12 following treatment: reduced
[2]; Example 3: 70-kilogram human subject with decreased immune response to a bacterial infection
  serum level of Bak1, Pdcd5, Casp2, Tradd, Trp53inp1, Casp3, or Casp12 following treatment: reduced
[2]; Example 4: 70-kilogram human subject at risk for a psychiatric condition
  serum level of Bak1, Pdcd5, Casp2, Tradd, Trp53inp1, Casp3, or Casp12 following treatment: reduced
[2]; Example 5: 70-kilogram human subject at risk for stress-induced apoptosis
  serum level of Bak1, Pdcd5, Casp2, Tradd, Trp53inp1, Casp3, or Casp12 following treatment: reduced
[2]; Example 6: 70-kilogram human subject at risk for a disease associated with an increased level of apoptosis
  serum level of Bak1, Pdcd5, Casp2, Tradd, Trp53inp1, Casp3, or Casp12 following treatment: reduced
[2]; Example 7: 70-kilogram human subject at risk of a disease having an increased expression level of the gene
  serum level of Bak1, Pdcd5, Casp2, Tradd, Trp53inp1, Casp3, or Casp12 following treatment: reduced
[2]; Example 8: 70-kilogram human subject at risk of Parkinson's disease
  serum level of Bak1, Pdcd5, Casp2, Tradd, Trp53inp1, Casp3, or Casp12 following treatment: reduced
